Results: patent publication US4666936A, “Amide derivatives of 2-(p-aminobenzyl)-butyric acid and esters thereof having hypolipidemizing activity” (Medosan Industrie Biochimiche Riunite S.p.A., priority 1984, dated 1987)
“Also recorded” adds a separate entry of the source.

Columns and labels:
[1] = system: cholesterol and triglycerides; conditions: literature, prior art; cited from earlier work
[2] = system: hematic levels of triglycerides and total cholesterol; test: Hypolipidemizing activity in mouse made hyperlipidemic by Triton WR-1339; format: in vivo, mouse (Swiss); conditions: 500 mg/kg per os; for Total cholesterol, % mg / Triglycerides, % mg: serum after 18 hours fasting; for Total cholesterol, % variation / Triglycerides, % variation: vs carrier
Protocol: (§1) The preparations administered "in vivo" by oral route, comprise a 0.5% suspension of carboxymethylcellulose in a neutral pH normal physiological saline for the compounds (3), (4) and (5), while for the compounds (2) and (6) the preparation comprises a solution in NaOH (0.1N) at pH 7-7.5. The hypolipidemizing activity of the substances under test was evaluated as the ability to decrease the hematic levels of triglycerides and total cholesterol in animals made hyperlipidemic by administration of Triton (antihyperlipidemic agents, J. N. Moss, Screening Methods in Pharmacology,Ed. Robert A. Turner and P. Hebborn, volume II, Academic Press, pages 121-143). The test was carried out on two animal species: rat and mouse. Male Wistar rats and Swiss mice were used, held at a normal diet, the former weighing 200-260 g, the latter weighing about 26-30 g. The compounds (2), (3), (4), (5) and (6) and the Bezafibrate and Clofibrate of control were administered per os at a dose of 500 mg/kg, simultaneously with a 10% solution in normal saline of Triton WR-1339 endoperitoneally at a rate of 2 ml/kg body weight. After treatment, the animals were divided into lots of eight, and held fasting for 18 hours and then sacrificed. The hematic levels of triglycerides total cholesterol are measured on the serum by enzymatic methods (Test-Combination Triglycerides, Boehring Mannheim GmbH) and colorimetric methods (Test-Combination Cholesterol, Boehring Mannheim GmbH). The results on the hypolipidemizing activity of the compounds under test in rat and mouse are referred in tables I and II.

[3] = system: hematic levels of triglycerides and total cholesterol; test: Hypolipidemizing activity in rat made hyperlipidemic by Triton WR-1339; format: in vivo, rat (male Wistar); conditions: 500 mg/kg per os; for Total cholesterol, % mg / Triglycerides, % mg: serum after 18 hours fasting; for Total cholesterol, % variation / Triglycerides, % variation: vs carrier
Protocol: as §1

[4] = mouse, os; value as reported in literature: G. Metz et al, Arzneimittel Forschung, 27: 1173; 1977; cited from earlier work
[5] = Acute toxicity (DL50) in mouse, oral route; conditions: in vivo, oral (os), 15 days observation
Protocol: DL50 was evaluated after administration of the compounds (2), (3), (4), (5) and (6) alone in male albine Swiss mice weighing 27±3 g, using the oral route. The animals were held under observation by checking the mortality and pain signs, if any, for 15 days.
The DL50 values (mg/kg) are referred in table III.

[6] = system: hematic levels of cholesterol and triglycerides; test: Pharmacological tests of hypolipidemizing activity, overall statements; format: in vivo, rat and mouse; conditions: compared with Bezafibrate and Clofibrate
Protocol: as §1

cholesterol = conditions: literature, appears to occur possibly; cited from earlier work
[7] = system: hepatic enzymes involved in the biosynthesis de novo of the triglycerides; conditions: literature, appears to occur possibly; cited from earlier work

Structure (SMILES): Cc1ccc(C)n1-c1ccc(CC(=O)Nc2nccs2)cc1
- hypolipidemizing activity (in words) [1]: hypolipidemizing activity lower than that of Bezafibrate

Structure (SMILES): CC(C)(Oc1ccc(CCNC(=O)c2ccc(Cl)cc2)cc1)C(=O)O [Bezafibrate, reference compound]
- hypolipidemizing activity (in words) [1]: ability to decrease the hematic levels of cholesterol and triglycerides
- Total cholesterol, % mg [2]: 139 % mg
- Triglycerides, % mg [2]: 100 % mg
- Total cholesterol, % variation [2]: -33%
- Triglycerides, % variation [2]: -32%
- Total cholesterol, % mg [3]: 210 % mg
- Triglycerides, % mg [3]: 415 % mg
- Total cholesterol, % variation [3]: -22%
- Triglycerides, % variation [3]: -20%

Structure (SMILES): CCOC(=O)C(C)(C)Oc1ccc(Cl)cc1 [Clofibrate, reference compound]
- DL50 [4]: 1280 mg/kg
- hypolipidemizing activity (in words) [1]: ability to decrease the hematic levels of cholesterol and triglycerides
- Total cholesterol, % mg [2]: 152 % mg
- Triglycerides, % mg [2]: 115 % mg
- Total cholesterol, % variation [2]: -27%
- Triglycerides, % variation [2]: -22%
- Total cholesterol, % mg [3]: 218 % mg
- Triglycerides, % mg [3]: 420 % mg
- Total cholesterol, % variation [3]: -19%
- Triglycerides, % variation [3]: -19%

Structure (SMILES): CCC(Cc1ccc(N2C(=O)c3ccccc3C2=O)cc1)C(=O)O (stereo not shown) [Compound (2), 2-(p-phthalimidobenzyl)-butyric acid]
- LD50 [5]: > 2000 mg/kg
- hypocholesterolemizing and hypolipidemizing activity (in words) [6]: interesting ability to decrease the hematic levels of cholesterol and triglycerides; also recorded: particularly high hypocholesterolemizing and hypolipidemizing activity
- Total cholesterol, % mg [2]: 130 % mg
- Triglycerides, % mg [2]: 60 % mg
- Total cholesterol, % variation [2]: -38%
- Triglycerides, % variation [2]: -59%
- Total cholesterol, % mg [3]: 176 % mg
- Triglycerides, % mg [3]: 360 % mg
- Total cholesterol, % variation [3]: -35%
- Triglycerides, % variation [3]: -31%

Structure (SMILES): CCOC(=O)C(CC)Cc1ccc(N2C(=O)c3ccccc3C2=O)cc1 (stereo not shown) [Compound (3), 2-(p-phthalimidobenzyl)-butyric acid ethyl ester]
- LD50 [5]: > 1700 mg/kg
- hypocholesterolemizing and hypolipidemizing activity (in words) [6]: interesting ability to decrease the hematic levels of cholesterol and triglycerides; also recorded: particularly high hypocholesterolemizing and hypolipidemizing activity
- Total cholesterol, % mg [2]: 140 % mg
- Triglycerides, % mg [2]: 64 % mg
- Total cholesterol, % variation [2]: -33%
- Triglycerides, % variation [2]: -56%
- Total cholesterol, % mg [3]: 189 % mg
- Triglycerides, % mg [3]: 390 % mg
- Total cholesterol, % variation [3]: -30%
- Triglycerides, % variation [3]: -25%

Structure (SMILES): CCOC(=O)C(CC)Cc1ccc(NC(=O)c2ccc(Cl)cc2)cc1 (stereo not shown) [Compound (4), 2-[4-(p-chlorobenzamido)-benzyl]-butyric acid ethyl ester]
- LD50 [5]: > 2000 mg/kg
- hypocholesterolemizing and hypolipidemizing activity (in words) [6]: interesting ability to decrease the hematic levels of cholesterol and triglycerides; also recorded: particularly high hypocholesterolemizing and hypolipidemizing activity
- Total cholesterol, % mg [2]: 129 % mg
- Triglycerides, % mg [2]: 90 % mg
- Total cholesterol, % variation [2]: -38%
- Triglycerides, % variation [2]: -39%
- Total cholesterol, % mg [3]: 200 % mg
- Triglycerides, % mg [3]: 400 % mg
- Total cholesterol, % variation [3]: -26%
- Triglycerides, % variation [3]: -23%

Structure (SMILES): CCOC(=O)C(CC)Cc1ccc(NC(=O)Cc2ccc(-n3cccc3)cc2)cc1 (stereo not shown) [Compound (5), 2-{4-[4-(1-pyrryl)-phenylacetamido]-benzyl}-butyric acid ethyl ester]
- LD50 [5]: > 2000 mg/kg
- hypocholesterolemizing and hypolipidemizing activity (in words) [6]: interesting ability to decrease the hematic levels of cholesterol and triglycerides; also recorded: particularly high hypocholesterolemizing and hypolipidemizing activity
- Total cholesterol, % mg [2]: 130 % mg
- Triglycerides, % mg [2]: 80 % mg
- Total cholesterol, % variation [2]: -38%
- Triglycerides, % variation [2]: -45%
- Total cholesterol, % mg [3]: 205 % mg
- Triglycerides, % mg [3]: 410 % mg
- Total cholesterol, % variation [3]: -24%
- Triglycerides, % variation [3]: -21%

Structure (SMILES): CCC(Cc1ccc(NC(=O)c2ccccc2C(=O)O)cc1)C(=O)O (stereo not shown) [Compound (6), 2-(p-phthalylaminobenzyl)-butyric acid]
- LD50 [5]: > 2000 mg/kg
- hypocholesterolemizing and hypolipidemizing activity (in words) [6]: interesting ability to decrease the hematic levels of cholesterol and triglycerides; also recorded: particularly high hypocholesterolemizing and hypolipidemizing activity
- Total cholesterol, % mg [2]: 130 % mg
- Triglycerides, % mg [2]: 64 % mg
- Total cholesterol, % variation [2]: -38%
- Triglycerides, % variation [2]: -56%
- Total cholesterol, % mg [3]: 180 % mg
- Triglycerides, % mg [3]: 380 % mg
- Total cholesterol, % variation [3]: -32%
- Triglycerides, % variation [3]: -28%

Structure (SMILES): CC(C)OC(=O)C(C)(C)Oc1ccc(C(=O)c2ccc(Cl)cc2)cc1 [Procetofene]
- hypolipidemizing activity (in words) [1]: hypolipidemizing activity lower than that of Bezafibrate

Structure (SMILES): CC(=O)c1ccccc1N1C(=O)c2ccccc2C1=O [o-(N-phthalimido)acetophenone]
- cholesterol absorption at the intestinal level (cholesterol): decrease the cholesterol absorption at the intestinal level
- excretion of cholesterol with the bile (cholesterol): speed up the excretion of cholesterol with the bile
- hypolipidemizing activity (in words) [1]: more active than Clofibrate in reducing the serum cholesterol percentage and the triglyceride level
- inhibiting activity in vivo on hepatic enzymes [7]: inhibiting activity in vivo

Structure (SMILES): O=C1NC(=O)c2ccccc21 [phthalimide]
- hypolipidemizing activity (in words) [1]: hypocholesterolemizing activity
